Results published in US20250115569A1, “SULFONAMIDE COMPOUNDS FOR THE TREATMENT OF NEUROLOGICAL CONDITIONS” (LARIO THERAPEUTICS LIMITED, priority 2021, published 2025).

Molecular target: Cav2.3 (Homo sapiens, UniProt Q15878)
Assay: Human Cav2.3 channel calcium-influx assay
Type: cell-based
Conditions: Fluo8 fluorescence, HEK-293 T-Rex/Kir2.1/Cav2.3e cells, without pluronic acid, read-out: Cav2.3 (pIC50) (converted)
Procedure, shortened: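 Signal = peak fluorescence (5–130 s) minus baseline (1–2 s), normalized to neutral (0) and inhibitor (−100) controls as % effect. Depolarization used final 20 mM KCl, 130 mM NaCl, 2 mM CaCl2, after 3 min RT compound exposure (30 μM top, half-log, 8 points, 0.3% DMSO) in doxycycline-induced HEK-293 T-Rex/Kir2.1/Cav2.3e-β4-α2δ1 cells with Fluo8 NW.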

Sequence of Cav2.3 (Q15878 whole entry, looked up): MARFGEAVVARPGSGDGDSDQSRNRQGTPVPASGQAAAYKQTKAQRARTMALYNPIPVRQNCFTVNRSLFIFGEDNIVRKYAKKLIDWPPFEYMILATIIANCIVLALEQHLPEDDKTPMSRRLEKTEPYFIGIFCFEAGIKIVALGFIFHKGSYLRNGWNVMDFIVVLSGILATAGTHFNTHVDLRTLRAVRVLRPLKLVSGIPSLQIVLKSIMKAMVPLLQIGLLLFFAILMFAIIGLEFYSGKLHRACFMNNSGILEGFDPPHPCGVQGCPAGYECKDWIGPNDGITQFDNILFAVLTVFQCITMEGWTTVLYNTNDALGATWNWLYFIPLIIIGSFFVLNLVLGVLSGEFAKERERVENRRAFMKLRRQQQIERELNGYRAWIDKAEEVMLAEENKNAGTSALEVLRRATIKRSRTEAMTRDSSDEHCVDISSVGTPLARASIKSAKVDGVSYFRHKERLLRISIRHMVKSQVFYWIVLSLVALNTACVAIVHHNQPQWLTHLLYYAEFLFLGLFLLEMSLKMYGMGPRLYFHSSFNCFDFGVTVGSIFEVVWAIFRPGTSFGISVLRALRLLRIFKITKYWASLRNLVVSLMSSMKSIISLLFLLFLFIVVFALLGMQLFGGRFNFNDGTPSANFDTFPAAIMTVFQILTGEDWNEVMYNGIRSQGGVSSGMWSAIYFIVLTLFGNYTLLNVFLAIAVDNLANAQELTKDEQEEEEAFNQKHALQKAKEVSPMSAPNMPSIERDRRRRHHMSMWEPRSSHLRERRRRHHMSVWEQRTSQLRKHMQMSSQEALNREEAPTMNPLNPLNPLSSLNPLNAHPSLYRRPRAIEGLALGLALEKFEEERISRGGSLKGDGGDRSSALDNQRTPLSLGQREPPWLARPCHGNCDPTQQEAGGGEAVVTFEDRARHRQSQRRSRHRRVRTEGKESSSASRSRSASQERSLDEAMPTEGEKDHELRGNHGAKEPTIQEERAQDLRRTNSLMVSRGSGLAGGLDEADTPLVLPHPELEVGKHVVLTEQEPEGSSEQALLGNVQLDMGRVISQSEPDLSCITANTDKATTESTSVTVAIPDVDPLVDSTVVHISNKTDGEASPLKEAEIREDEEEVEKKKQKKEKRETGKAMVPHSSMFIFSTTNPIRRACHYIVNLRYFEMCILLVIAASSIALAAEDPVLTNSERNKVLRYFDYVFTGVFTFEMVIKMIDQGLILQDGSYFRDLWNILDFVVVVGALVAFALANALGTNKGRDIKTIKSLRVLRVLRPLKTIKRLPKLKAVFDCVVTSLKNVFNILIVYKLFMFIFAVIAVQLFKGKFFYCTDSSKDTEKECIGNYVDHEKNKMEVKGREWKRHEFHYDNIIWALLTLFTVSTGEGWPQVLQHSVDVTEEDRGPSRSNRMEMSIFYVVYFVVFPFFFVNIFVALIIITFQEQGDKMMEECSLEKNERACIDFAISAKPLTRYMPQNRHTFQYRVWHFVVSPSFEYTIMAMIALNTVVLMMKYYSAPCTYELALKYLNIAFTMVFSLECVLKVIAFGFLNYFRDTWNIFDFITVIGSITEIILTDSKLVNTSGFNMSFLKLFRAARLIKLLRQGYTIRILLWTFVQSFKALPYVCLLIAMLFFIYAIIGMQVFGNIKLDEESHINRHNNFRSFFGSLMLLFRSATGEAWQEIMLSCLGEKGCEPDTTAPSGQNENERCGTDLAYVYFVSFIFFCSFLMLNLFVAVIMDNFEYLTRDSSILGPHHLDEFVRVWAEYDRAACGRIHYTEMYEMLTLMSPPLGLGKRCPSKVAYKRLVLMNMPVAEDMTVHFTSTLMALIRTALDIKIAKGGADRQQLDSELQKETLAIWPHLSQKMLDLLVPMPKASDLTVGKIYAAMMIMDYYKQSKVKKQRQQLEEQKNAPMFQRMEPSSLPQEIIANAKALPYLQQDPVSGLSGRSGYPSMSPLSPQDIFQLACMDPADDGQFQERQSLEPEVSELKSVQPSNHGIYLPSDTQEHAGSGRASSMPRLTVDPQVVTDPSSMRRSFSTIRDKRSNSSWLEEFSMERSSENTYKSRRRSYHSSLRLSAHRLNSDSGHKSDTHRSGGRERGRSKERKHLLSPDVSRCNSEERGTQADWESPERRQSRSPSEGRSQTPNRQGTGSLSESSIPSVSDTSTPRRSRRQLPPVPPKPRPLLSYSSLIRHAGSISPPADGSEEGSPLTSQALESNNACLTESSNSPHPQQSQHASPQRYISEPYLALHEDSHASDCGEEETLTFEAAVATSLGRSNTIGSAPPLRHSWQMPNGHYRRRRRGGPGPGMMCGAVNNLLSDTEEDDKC

IC50 [nM] | SMILES
447 | CCN([C@H](c1ccc(F)cc1)C(F)(F)F)S(=O)(=O)c1ccc2nc(C)cn2n1 [Example 180, (R)—N-ethyl-2-methyl-N-(2,2,2-trifluoro-1-(4-fluorophenyl)ethyl)imidazo[1,2-b]pyridazine-6-sulfonamide]
6760 | CCN([C@@H](c1ccc(F)cc1)C(F)(F)F)S(=O)(=O)c1ccc(=O)n(C)c1 [Example 102, (S)—N-ethyl-1-methyl-6-oxo-N-(2,2,2-trifluoro-1-(4-fluorophenyl)ethyl)-1,6-dihydropyridine-3-sulfonamide]
162 | CCN([C@H](c1ccc(C(F)(F)F)c(C)c1)C(F)(F)F)S(=O)(=O)c1cncc(F)c1 [Example 271, (R)—N-ethyl-5-fluoro-N-(2,2,2-trifluoro-1-(3-methyl-4-(trifluoromethyl)phenyl)ethyl)pyridine-3-sulfonamide]
427 | CN([C@H](c1ccc(Cl)cc1)C(F)(F)F)S(=O)(=O)c1cnc2ccnn2c1 [Example 201, (R)—N-(1-(4-chlorophenyl)-2,2,2-trifluoroethyl)-N-methylpyrazolo[1,5-a]pyrimidine-6-sulfonamide]
240 | CN([C@H](c1ccc(Cl)cc1)C(F)(F)F)S(=O)(=O)c1ccn2ccnc2c1 [Example 194, (R)—N-(1-(4-chlorophenyl)-2,2,2-trifluoroethyl)-N-methylimidazo[1,2-a]pyridine-7-sulfonamide]
132 | CCN(C(c1ccc(F)cc1)C(F)(F)F)S(=O)(=O)c1cncc(C(C)=O)c1 (stereo not drawn) [Example 120, 5-acetyl-N-ethyl-N-(2,2,2-trifluoro-1-(4-fluorophenyl)ethyl)pyridine-3-sulfonamide]
1170 | COc1ccc([C@@H](N(C)S(=O)(=O)C2CCOCC2)C(F)(F)F)cc1 [Example 129, (R)—N-methyl-N-(2,2,2-trifluoro-1-(4-methoxyphenyl)ethyl)tetrahydro-2H-pyran-4-sulfonamide]
155 | CN(C(c1ccc(F)cc1)C(F)(F)F)S(=O)(=O)c1cncc(C#N)c1 (racemic) [Example 272, 5-Cyano-N-methyl-N-(2,2,2-trifluoro-1-(4-fluorophenyl)ethyl)pyridine-3-sulfonamide]
1150 | CN([C@H](c1ccc(Cl)cc1)C(F)(F)F)S(=O)(=O)c1cn2ccnc2cn1 [Example 199, (R)—N-(1-(4-chlorophenyl)-2,2,2-trifluoroethyl)-N-methylimidazo[1,2-a]pyrazine-6-sulfonamide]
661 | CN([C@H](c1ccc(Cl)cc1)C(F)(F)F)S(=O)(=O)c1cnc2nsnc2c1 [Example 179, (R)—N-(1-(4-chlorophenyl)-2,2,2-trifluoroethyl)-N-methyl-[1,2,5]thiadiazolo[3,4-b]pyridine-6-sulfonamide]
339 | CCN(C(c1ccc(F)cc1)C(F)(F)F)S(=O)(=O)c1csc(C(N)=O)n1 (stereo not drawn) [Example 49, 4-(N-ethyl-N-(2,2,2-trifluoro-1-(4-fluorophenyl)ethyl)sulfamoyl)thiazole-2-carboxamide]
1580 | CCN([C@H](c1ccc(F)cc1)C(F)(F)F)S(=O)(=O)c1nc2ccccn2n1 [Example 153, (R)—N-ethyl-N-(2,2,2-trifluoro-1-(4-fluorophenyl)ethyl)-[1,2,4]triazolo[1,5-a]pyridine-2-sulfonamide]
166 | CCN([C@H](c1ccc(F)cc1)C(F)(F)F)S(=O)(=O)c1cnnc(OC)c1 [Example 123, (R)—N-ethyl-6-methoxy-N-(2,2,2-trifluoro-1-(4-fluorophenyl)ethyl)pyridazine-4-sulfonamide]
37.2 | CCN(C(c1ccc(Cl)cc1)C(F)(F)F)S(=O)(=O)c1cncc(C#N)c1 (stereo not drawn) [Example 54, N-(1-(4-chlorophenyl)-2,2,2-trifluoroethyl)-5-cyano-N-ethylpyridine-3-sulfonamide]
324 | CCN([C@H](c1ccc(F)cc1)C(F)(F)F)S(=O)(=O)c1cn2ccnc2cn1 [Example 198, (R)—N-ethyl-N-(2,2,2-trifluoro-1-(4-fluorophenyl)ethyl)imidazo[1,2-a]pyrazine-6-sulfonamide]
2000 | CCN(C(c1ccc(F)cc1)C(F)(F)F)S(=O)(=O)c1csc(C(=O)OC)n1 (stereo not drawn) [Example 48, methyl 4-(N-ethyl-N-(2,2,2-trifluoro-1-(4-fluorophenyl)ethyl)sulfamoyl)thiazole-2-carboxylate]
8910 | CN(C(c1ccc(F)cc1)C(F)(F)F)S(=O)(=O)c1ccc(Cl)s1 (stereo not drawn) [Example 1, 5-chloro-N-methyl-N-(2,2,2-trifluoro-1-(4-fluorophenyl)ethyl)thiophene-2-sulfonamide]
178 | N#Cc1cncc(S(=O)(=O)N(CCF)C(c2ccc(F)cc2)C(F)(F)F)c1 (stereo not drawn) [Example 64, 5-Cyano-N-(2-fluoroethyl)-N-(2,2,2-trifluoro-1-(4-fluorophenyl)ethyl)pyridine-3-sulfonamide]

IC50 [nM] | SMILES
1780 | CCN(C(c1ccc(F)cc1)C(F)(F)F)S(=O)(=O)c1cncc(C(N)=O)c1 (stereo in doubt) [Example 53, (R)-5-(N-ethyl-N-(2,2,2-trifluoro-1-(4-fluorophenyl)ethyl)sulfamoyl)nicotinamide]
5750 | CCN([C@H](c1ccc(F)cc1)C(F)(F)F)S(=O)(=O)c1ccc2nnc(C(F)(F)F)n2n1 [Example 169, (R)—N-ethyl-N-(2,2,2-trifluoro-1-(4-fluorophenyl)ethyl)-3-(trifluoromethyl)-[1,2,4]triazolo[4,3-b]pyridazine-6-sulfonamide]
331 | CCN([C@H](c1ccc(F)cc1)C(F)(F)F)S(=O)(=O)c1cc2cn[nH]c2cn1 [Example 167, (R)—N-ethyl-N-(2,2,2-trifluoro-1-(4-fluorophenyl)ethyl)-1H-pyrazolo[3,4-c]pyridine-5-sulfonamide]
28.2 | [2H]C([2H])([2H])N([C@H](c1ccc(Cl)cc1)C(F)(F)F)S(=O)(=O)c1cncc(C#N)c1 [Example 227, (R)—N-(1-(4-chlorophenyl)-2,2,2-trifluoroethyl)-5-cyano-N-(methyl-d3)pyridine-3-sulfonamide]
191 | CN([C@H](c1ccc(Cl)cc1)C(F)(F)F)S(=O)(=O)c1cccnn1 [Example 209, (R)—N-(1-(4-chlorophenyl)-2,2,2-trifluoroethyl)-N-methylpyridazine-3-sulfonamide]
575 | CCN([C@H](c1ccc(F)cc1)C(F)(F)F)S(=O)(=O)c1cnc2c(C#N)cnn2c1 [Example 141, (R)-3-cyano-N-ethyl-N-(2,2,2-trifluoro-1-(4-fluorophenyl)ethyl)pyrazolo[1,5-a]pyrimidine-6-sulfonamide]
11200 | CCN([C@H](c1ccc(F)cc1)C(F)(F)F)S(=O)(=O)c1nn(CC)c2cccnc12 [Example 173, (R)—N,1-diethyl-N-(2,2,2-trifluoro-1-(4-fluorophenyl)ethyl)-1H-pyrazolo[4,3-b]pyridine-3-sulfonamide]
18600 | CCN([C@H](c1ccc(F)cc1)C(F)(F)F)S(=O)(=O)c1n[nH]c2cccnc12 [Example 174, (R)—N-ethyl-N-(2,2,2-trifluoro-1-(4-fluorophenyl)ethyl)-1H-pyrazolo[4,3-b]pyridine-3-sulfonamide]
490 | Cc1cc([C@@H](N(C)S(=O)(=O)c2cncc(F)c2)C(F)(F)F)ccc1C(F)(F)F [Example 270, (R)-5-fluoro-N-methyl-N-(2,2,2-trifluoro-1-(3-methyl-4-(trifluoromethyl)phenyl)ethyl)pyridine-3-sulfonamide]
158 | CCN([C@H](c1ccc(F)cc1)C(F)(F)F)S(=O)(=O)c1cnc2nsnc2c1 [Example 147, (R)—N-ethyl-N-(2,2,2-trifluoro-1-(4-fluorophenyl)ethyl)-[1,2,5]thiadiazolo[3,4-b]pyridine-6-sulfonamide]
31.6 | CN([C@H](c1ccc(C(F)(F)F)cc1)C(F)(F)F)S(=O)(=O)c1cnc2ccccn12 [Example 235, (R)—N-methyl-N-(2,2,2-trifluoro-1-(4-(trifluoromethyl)phenyl)ethyl)imidazo[1,2-a]pyridine-3-sulfonamide]
355 | CCN(C(c1ccc(F)cc1)C(F)(F)F)S(=O)(=O)c1ccc2c(c1)S(=O)(=O)CC2 (stereo not drawn) [Example 28, N-ethyl-N-(2,2,2-trifluoro-1-(4-fluorophenyl)ethyl)-2,3-dihydrobenzo[b]thiophene-6-sulfonamide 1,1-dioxide]
1780 | CCN([C@H](c1ccc(F)cc1)C(F)(F)F)S(=O)(=O)c1nc2cnccn2n1 [Example 144, (R)—N-ethyl-N-(2,2,2-trifluoro-1-(4-fluorophenyl)ethyl)-[1,2,4]triazolo[1,5-a]pyrazine-2-sulfonamide]
288 | CCN([C@H](c1ccc(F)cc1)C(F)(F)F)S(=O)(=O)c1cccc2[nH]ncc12 [Example 182, (R)—N-ethyl-N-(2,2,2-trifluoro-1-(4-fluorophenyl)ethyl)-1H-indazole-4-sulfonamide]
14100 | COc1ccc([C@H](N(C)S(=O)(=O)C2CCOCC2)C(F)(F)F)cc1 [Example 128, (S)—N-methyl-N-(2,2,2-trifluoro-1-(4-methoxyphenyl)ethyl)tetrahydro-2H-pyran-4-sulfonamide]
302 | CCN([C@H](c1ccc(F)cc1)C(F)(F)F)S(=O)(=O)c1ccnc2[nH]ccc12 [Example 175, (R)—N-ethyl-N-(2,2,2-trifluoro-1-(4-fluorophenyl)ethyl)-1H-pyrrolo[2,3-b]pyridine-4-sulfonamide]
468 | CCN(C(c1ccc(F)cc1)C(F)(F)F)S(=O)(=O)c1cnc(C(N)=O)s1 (stereo not drawn) [Example 46, 5-(N-ethyl-N-(2,2,2-trifluoro-1-(4-fluorophenyl)ethyl)sulfamoyl)thiazole-2-carboxamide]
447 | CCN(C(c1ccc(F)cc1)C(F)(F)F)S(=O)(=O)c1ncc(C#N)s1 (stereo not drawn) [Example 80, 5-Cyano-N-ethyl-N-(2,2,2-trifluoro-1-(4-fluorophenyl)ethyl)thiazole-2-sulfonamide]
